Legend:
[1] = tested on: KRAS G12D mutant human lung cancer cell A427; experiment: 3D cell proliferation inhibition assay, A427; assay type: cell-based; settings: A-427, 168 h, A427, 7 days, CTG, class symbols
Outline: (§1)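 IC50 values derive from nonlinear fits of log dose against percent inhibition of 7-day 3D proliferation. Readout: CTG luminescence. Plating density: 5×10^2 cells/well in low-adsorption plates. Dosing: 10000–0.026 nM final, 0.2% DMSO.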

[2] = tested on: KRAS G12D mutant human gastric cancer cell AGS; experiment: 3D cell proliferation inhibition assay, AGS; assay type: cell-based; settings: 168 h, 7 days, CTG
Outline: as §1

[3] = biological target: T1, Human KRAS G12D 6His-tagged (Homo sapiens, UniProt P01116, G12D); experiment: KRAS-G12D/GTP binding assay (HTRF)
T1 construct: purchased PerkinElmer
Description: In this method, the inhibitory effects of the compounds on the binding of KRAS-G12D to GTP were assayed by a homogeneous time-resolved fluorescence (HTRF) technique using a KRAS-G12D/GTP binding assay kit (PerkinElmer).
The experimental procedures were as follows (refer to the kit instructions for detailed test methods): the compounds of the present disclosure were each firstly dissolved in DMSO at a concentration of 20 mM, and then diluted in an equal gradient with a buffer in the kit, so that the final concentrations of the test compounds in the reaction system were in a range of 0.02-5000 nM, and the final concentration of DMSO was 0.5%. 5 μL of each compound was incubated with 5 μL of 1× Human KRAS G12D 6His-tagged (PerkinElmer), 5 μL of 1×6His Eu Cryptate Antibody (PerkinElmer), and 5 μL of 1×GTP Red reagent (PerkinElmer) in a 384-well plate (Greiner) at 25° C. for 1 h. After the incubation was completed, the fluorescence intensity of each well was measured at the excitation wavelength of 337 nm and the emission wavelengths of 620 nm and 665 nm with an EnVision microplate reader (PerkinElmer) in the HTRF mode, and Ratio values were calculated using the formula: Ratio=(665 nm/620 nm)×[…]. The inhibition rates of the compounds at each concentration were calculated by comparing the fluorescence intensity ratio with that of the control group. Then non-linear curve fittings for logarithmic concentration-inhibition rate were performed using the GraphPad Prism 8 analysis software, and the IC50 values of the compounds were obtained (Table 2).

KRAS-G12D = biological target: T2, KRAS-G12D (Homo sapiens, UniProt P01116, G12D); experiment: KRAS-G12D degradation assay (Western Blot), A-427 cells; assay type: cell-based; settings: A427 cells, 24 h, class symbols; for Dmax: A-427
T2 construct: endogenous in cells; host or cells: A-427 (ATCC), AGS, AsPc-1, Panc 04.03
Outline: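 Each KRAS G12D mutant line (A-427, AGS, AsPc-1, Panc 04.03) was seeded at 5×10^5 cells/well and treated 24 h at 37 °C with 0.03–3000 nM compound (final DMSO 0.25%). KRAS in lysates was measured by Western blot, normalized to β-actin and compared with controls, giving DC50 and Dmax from curve fits.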

T2 sequence (P01116 1-188 isoform P01116-2 G12D): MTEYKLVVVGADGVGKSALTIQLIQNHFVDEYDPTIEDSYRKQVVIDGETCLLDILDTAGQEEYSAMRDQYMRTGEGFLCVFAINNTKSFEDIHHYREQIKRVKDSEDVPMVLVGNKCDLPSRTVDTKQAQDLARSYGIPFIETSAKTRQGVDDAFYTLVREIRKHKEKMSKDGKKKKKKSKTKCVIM
T1 sequence (P01116 1-188 isoform P01116-2 G12D): as above

| Structure (SMILES) | IC50 [1] [nM] | IC50 ([2]; class symbols) [nM] | IC50 ([3]; class symbols) [nM] | DC50 (KRAS-G12D) [nM] | Dmax (KRAS-G12D) [%] | IC50 ([3]; numeric values) [nM] | IC50 ([2]; numeric values) [nM] |
| --- | --- | --- | --- | --- | --- | --- | --- |
| C#Cc1c(F)ccc2cc(O)cc(-c3ncc4c(N5CC6CCC(C5)N6)nc(OCC56CC(CN7CCN(CCC8CCC9(CC8)CCN(C(=O)c8ccc(Cl)c(N%10CCC(=O)NC%10=O)c8)CC9)CC7)(C5)C6)nc4c3F)c12 [Example 56, 1-(5-(9-(2-(4-((3-(((4-(3,8-diazabicyclo[3.2.1]octan-3-yl)-7-(8-ethynyl-7-fluoro-3-hydroxynaphthalen-1-yl)-8-fluoropyrido[4,3-d]pyrimidin-2-yl)oxy)methyl)bicyclo[1.1.1]pentan-1-yl)methyl)piperazin-1-yl)ethyl)-3-azaspiro[5.5]undecane-3-carbonyl)-2-chlorophenyl)dihydropyrimidine-2,4(1H,3H)-dione] | 50 to 100 | ≤ 50 | 50 to 100 | ≤ 50 | 50 to 80 | – | – |
| C#Cc1c(F)ccc2cc(O)cc(-c3ncc4c(N5CC6CCC(C5)N6)nc(OCCN5CCN(CCC6CCC7(CC6)CCN(C(=O)c6ccc(Cl)c(N8CCC(=O)NC8=O)c6)CC7)CC5)nc4c3F)c12 [Example 61, 1-(5-(9-(2-(4-(2-((4-(3,8-diazabicyclo[3.2.1]octan-3-yl)-7-(8-ethynyl-7-fluoro-3-hydroxynaphthalen-1-yl)-8-fluoropyrido[4,3-d]pyrimidin-2-yl)oxy)ethyl)piperazin-1-yl)ethyl)-3-azaspiro[5.5]undecane-3-carbonyl)-2-chlorophenyl)dihydropyrimidine-2,4(1H,3H)-dione] | 100 to 500 | ≤ 50 | – | – | – | 21.1 | – |
| C#Cc1c(F)ccc2cc(O)cc(-c3ncc4c(N5CC6CCC(C5)N6)nc(OCC5(CN6CC7CC6CN7CC6CCC7(CC6)CCN(C(=O)c6ccc(Cl)c(N8CCC(=O)NC8=O)c6)CC7)CC5)nc4c3F)c12 (stereo not shown) [Example 59, 1-(5-(9-((5-((1-(((4-(3,8-diazabicyclo[3.2.1]octan-3-yl)-7-(8-ethynyl-7-fluoro-3-hydroxynaphthalen-1-yl)-8-fluoropyrido[4,3-d]pyrimidin-2-yl)oxy)methyl)cyclopropyl)methyl)-2,5-diazabicyclo[2.2.1]heptan-2-yl)methyl)-3-azaspiro[5.5]undecane-3-carbonyl)-2-chlorophenyl)dihydropyrimidine-2,4(1H,3H)-dione] | 100 to 500 | ≤ 50 | ≤ 50 | 1000 to 10000 | < 30 | – | – |
| C#Cc1c(F)ccc2cc(O)cc(-c3ncc4c(N5CC6CCC(C5)N6)nc(OCC5(CN6CCN(CC7CCN(C(=O)c8ccc(Cl)c(N9CCC(=O)NC9=O)c8)CC7)CC6)CC5)nc4c3F)c12 [Example 27, 1-(5-(4-((4-((1-(((4-(3,8-diazabicyclo[3.2.1]octan-3-yl)-7-(8-ethynyl-7-fluoro-3-hydroxynaphthalen-1-yl)-8-fluoropyrido[4,3-d]pyrimidin-2-yl)oxy)methyl)cyclopropyl)methyl)piperazin-1-yl)methyl)piperidine-1-carbonyl)-2-chlorophenyl)dihydropyrimidine-2,4(1H,3H)-dione] | – | ≤ 50 | ≤ 50 | 1000 to 10000 | 30 to 50 | – | – |
| C#Cc1c(F)ccc2cc(O)cc(-c3ncc4c(N5CC6CCC(C5)N6)nc(OCC5(CN6CCC7(CC6)CCN(C(=O)c6ccc(Cl)c(N8CCC(=O)NC8=O)c6)CC7)CC5)nc4c3F)c12 [Example 85, 1-(5-(9-((1-(((4-(3,8-diazabicyclo[3.2.1]octan-3-yl)-7-(8-ethynyl-7-fluoro-3-hydroxynaphthalen-1-yl)-8-fluoropyrido[4,3-d]pyrimidin-2-yl)oxy)methyl)cyclopropyl)methyl)-3,9-diazaspiro[5.5]undecane-3-carbonyl)-2-chlorophenyl)dihydropyrimidine-2,4(1H,3H)-dione] | – | – | – | – | – | 1.34 | 50.2 |
| C#Cc1c(F)ccc2cc(O)cc(-c3ncc4c(N5CC6CCC(C5)N6)nc(OCC5(CN6CCC(CN7CCC8(CC7)CCN(C(=O)c7ccc(OC)c(N9CCC(=O)NC9=O)c7)CC8)CC6)CC5)nc4c3F)c12 [Example 38, 1-(5-(9-((1-((1-(((4-(3,8-diazabicyclo[3.2.1]octan-3-yl)-7-(8-ethynyl-7-fluoro-3-hydroxynaphthalen-1-yl)-8-fluoropyrido[4,3-d]pyrimidin-2-yl)oxy)methyl)cyclopropyl)methyl)piperidin-4-yl)methyl)-3,9-diazaspiro[5.5]undecane-3-carbonyl)-2-methoxyphenyl)dihydropyrimidine-2,4(1H,3H)-dione] | ≤ 50 | ≤ 50 | ≤ 50 | ≤ 50 | 80 to 100 | – | – |
| Cc1ccc(C(=O)N2CCC3(CCC(CN4CCN(CC5(COc6nc(N7CC8CCC(C7)N8)c7cnc(-c8cccc9cccc(Cl)c89)c(F)c7n6)CC5)CC4)CC3)CC2)cc1N1CCC(=O)NC1=O [Example 45, 1-(5-(9-((4-((1-(((4-(3,8-diazabicyclo[3.2.1]octan-3-yl)-7-(8-chloronaphthalen-1-yl)-8-fluoropyrido[4,3-d]pyrimidin-2-yl)oxy)methyl)cyclopropyl)methyl)piperazin-1-yl)methyl)-3-azaspiro[5.5]undecane-3-carbonyl)-2-methylphenyl)dihydropyrimidine-2,4(1H,3H)-dione] | 50 to 100 | 50 to 100 | ≤ 50 | 1000 to 10000 | < 30 | – | – |
| C#Cc1c(F)ccc2cc(O)cc(-c3ncc4c(N5CC6CCC(C5)N6)nc(OCC5(CN6CC(CN7CCC8(CC7)CCN(C(=O)c7ccc(OC)c(N9CCC(=O)NC9=O)c7)CC8)C6)CC5)nc4c3F)c12 [Example 40, 1-(5-(9-((1-((1-(((4-(3,8-diazabicyclo[3.2.1]octan-3-yl)-7-(8-ethynyl-7-fluoro-3-hydroxynaphthalen-1-yl)-8-fluoropyrido[4,3-d]pyrimidin-2-yl)oxy)methyl)cyclopropyl)methyl)azetidin-3-yl)methyl)-3,9-diazaspiro[5.5]undecane-3-carbonyl)-2-methoxyphenyl)dihydropyrimidine-2,4(1H,3H)-dione] | 1000 to 10000 | 100 to 500 | ≤ 50 | 1000 to 10000 | 30 to 50 | – | – |
| C#Cc1c(F)ccc2cc(O)cc(-c3ncc4c(N5CC6CCC(C5)N6)nc(OCC5(CN6CCC(CCN7CCN(C(=O)c8ccc(Cl)c(N9CCC(=O)NC9=O)c8)CC7)CC6)CC5)nc4c3F)c12 [Example 28, 1-(5-(4-(2-(1-((1-(((4-(3,8-diazabicyclo[3.2.1]octan-3-yl)-7-(8-ethynyl-7-fluoro-3-hydroxynaphthalen-1-yl)-8-fluoropyrido[4,3-d]pyrimidin-2-yl)oxy)methyl)cyclopropyl)methyl)piperidin-4-yl)ethyl)piperazine-1-carbonyl)-2-chlorophenyl)dihydropyrimidine-2,4(1H,3H)-dione] | – | – | ≤ 50 | 1000 to 10000 | < 30 | – | – |
